Data reported in publication PMC5856786, “A DHODH inhibitor increases p53 synthesis and enhances tumor cell killing by p53 degradation blockage” (Nature Communications, 2018).
Each block holds one molecule with its values, some of them ahead of it.

Legend:
[1] = tested on: ARN8 xenograft; experiment: ARN8 subcutaneous xenograft; type: in vivo
Method: All animal xenograft experiments were approved by the Norwegian Animal Research Authority and conducted according to The European Convention for the Protection of Vertebrates Used for Scientific Purposes. […] The health status and weight of the mice were monitored daily and they were randomized in a non-blinded manner into 4 groups when tumor volumes reached 30–40 mm^3. […] Tumor volumes were measured every second day by a digital caliper using the following ellipsoid formula: Volume = π (length × width × height)/6.
To determine the efficacy of (R)-HZ05 in combination with nutlin-3a, 4 groups of NSG mice (n = 8 per group) were subcutaneously injected in the flank region with a single 100 μL injection of 2 × 10^6 ARN8 cells in a solution of PBS:Matrigel (volume ratio 3:1). Treatment was initiated when tumors reached ~50 mm^3. The maximum tolerated dose for this combination of drugs was previously determined for the strain we used. The endpoint of the experiment was determined by the tumor size ([…]) weight loss, and general condition of the mice according to The Norwegian Animal Research Authority.

[2] = biological target: CDK1/CycB1 (Homo sapiens, UniProt P06493); experiment: biochemical; design: radiometric 33PanQinase protein kinase activity assay, CDK/cyclin panel, per cent remaining activity; conditions: read-out: (R)-HZ00 10 µM Average (% remaining activity)
Excerpt: (§1) Supplementary Table 1. In vitro inhibition (% remaining activity) of cyclin-dependent
(§2) ProQinase GmbH (Freiburg, Germany) using a radiometric protein kinase assay
(§3) (33PanQinase® Activity Assay).
(§4) (1 picture or pasted object on this page, not shown here) 32 Supplementary Table 1. In vitro inhibition (% remaining activity) of cyclin-dependent kinases (CDKs).

[3] = biological target: CDK9/CycT1 (Homo sapiens, UniProt P50750); experiment: biochemical; design: radiometric 33PanQinase protein kinase activity assay, CDK/cyclin panel, per cent remaining activity; conditions: read-out: (R)-HZ00 10 µM Average (% remaining activity)
Excerpt: as §1, §2, §3, §4

[4] = biological target: CDK6/CycD1 (Homo sapiens, UniProt Q00534); experiment: biochemical; design: radiometric 33PanQinase protein kinase activity assay, CDK/cyclin panel, per cent remaining activity; conditions: read-out: (R)-HZ00 10 µM Average (% remaining activity)
Excerpt: as §1, §2, §3, §4

[5] = biological target: CDK8/CycC (Homo sapiens, UniProt P49336); experiment: biochemical; design: radiometric 33PanQinase protein kinase activity assay, CDK/cyclin panel, per cent remaining activity; conditions: read-out: (R)-HZ00 10 µM Average (% remaining activity)
Excerpt: as §1, §2, §3, §4

[6] = biological target: CDK7/CycH/MAT1 (Homo sapiens, UniProt P50613); experiment: biochemical; design: radiometric 33PanQinase protein kinase activity assay, CDK/cyclin panel, per cent remaining activity; conditions: read-out: (R)-HZ00 10 µM Average (% remaining activity)
Excerpt: as §1, §2, §3, §4

[7] = biological target: CDK2/CycA2 (Homo sapiens, UniProt P24941); experiment: biochemical; design: radiometric 33PanQinase protein kinase activity assay, CDK/cyclin panel, per cent remaining activity; conditions: read-out: (R)-HZ00 10 µM Average (% remaining activity)
Excerpt: as §1, §2, §3, §4

[8] = biological target: T1, PCTAIRE1/CycY (Homo sapiens, UniProt Q00536); experiment: biochemical; design: radiometric 33PanQinase protein kinase activity assay, CDK/cyclin panel, per cent remaining activity; conditions: read-out: (R)-HZ00 10 µM Average (% remaining activity)
T1 construct: gene CDK16
Excerpt: as §1, §2, §3, §4

[9] = biological target: T2, CDK5/p35NCK (Homo sapiens, UniProt Q00535); experiment: biochemical; design: radiometric 33PanQinase protein kinase activity assay, CDK/cyclin panel, per cent remaining activity; conditions: read-out: (R)-HZ00 10 µM Average (% remaining activity)
T2 construct: p35
Excerpt: as §1, §2, §3, §4

[10] = biological target: CDK4/CycD1 (Homo sapiens, UniProt P11802); experiment: biochemical; design: radiometric 33PanQinase protein kinase activity assay, CDK/cyclin panel, per cent remaining activity; conditions: read-out: (R)-HZ00 10 µM Average (% remaining activity)
Excerpt: as §1, §2, §3, §4

[11] = biological target: CDK1/CycA2 (Homo sapiens, UniProt P06493); experiment: biochemical; design: radiometric 33PanQinase protein kinase activity assay, CDK/cyclin panel, per cent remaining activity; conditions: read-out: (R)-HZ00 10 µM Average (% remaining activity)
Excerpt: as §1, §2, §3, §4

[12] = biological target: CDK1/CycE1 (Homo sapiens, UniProt P06493); experiment: biochemical; design: radiometric 33PanQinase protein kinase activity assay, CDK/cyclin panel, per cent remaining activity; conditions: read-out: (R)-HZ00 10 µM Average (% remaining activity)
Excerpt: as §1, §2, §3, §4

[13] = biological target: T3, CDK5/p25NCK (Homo sapiens, UniProt Q00535); experiment: biochemical; design: radiometric 33PanQinase protein kinase activity assay, CDK/cyclin panel, per cent remaining activity; conditions: read-out: (R)-HZ00 10 µM Average (% remaining activity)
T3 construct: p25
Excerpt: as §1, §2, §3, §4

[14] = biological target: CDK2/CycE1 (Homo sapiens, UniProt P24941); experiment: biochemical; design: radiometric 33PanQinase protein kinase activity assay, CDK/cyclin panel, per cent remaining activity; conditions: read-out: (R)-HZ00 10 µM Average (% remaining activity)
Excerpt: as §1, §2, §3, §4

[15] = biological target: CDK4/CycD3 (Homo sapiens, UniProt P11802); experiment: biochemical; design: radiometric 33PanQinase protein kinase activity assay, CDK/cyclin panel, per cent remaining activity; conditions: read-out: (R)-HZ00 10 µM Average (% remaining activity)
Excerpt: as §1, §2, §3, §4

[16] = biological target: CDK9/CycK (Homo sapiens, UniProt P50750); experiment: biochemical; design: radiometric 33PanQinase protein kinase activity assay, CDK/cyclin panel, per cent remaining activity; conditions: read-out: (R)-HZ00 10 µM Average (% remaining activity)
Excerpt: as §1, §2, §3, §4

[17] = biological target: CDK3/CycE1 (Homo sapiens, UniProt Q00526); experiment: biochemical; design: radiometric 33PanQinase protein kinase activity assay, CDK/cyclin panel, per cent remaining activity; conditions: read-out: (R)-HZ00 10 µM Average (% remaining activity)
Excerpt: as §1, §2, §3, §4

[18] = tested on: p53-dependent transcription in ARN8 human melanoma cells; experiment: p53-dependent transcription reporter (CPRG assay) in ARN8 cells; type: cell-based; conditions: ARN8, 16 h
Method: A 20,000 compound library was purchased from ChemBridge consisting of 10,000 from the DIVERSet and 10,000 from the CombiSet libraries. […] A total of 30,000 additional compounds from the ChemBridge DIVERSet that were previously screened in a T22 cell background[12] were re-screened in ARN8 cells at 5 µM. The ChemBridge codes for these compounds can be made available upon request. All chemical synthesis is detailed in Supplementary Information with NMR spectra and reaction schemes detailed in Supplementary Figs. 13–19.

[19] = tested on: ARN8 cells; experiment: Giemsa staining of ARN8 cultures (uridine, orotic acid, dihydroorotic acid supplementation); type: cell-based, human; conditions: 72 h, 2.5 or 5 μM uridine, serum replacement medium
Method: Additionally, ARN8 cells were treated for 16 h and p53-dependent transcription was measured by CPRG assay. Values correspond to the average of three technical repeats ± SD. c Simplified description of the pyrimidine nucleotide de novo (blue) and salvage (black) pathways. d ARN8 cells were seeded in FBS supplemented DMEM with a change to serum replacement medium 24 h post seeding. […] Values correspond to the average of three technical repeats ± SD. f ARN8 cells were seeded in FBS supplemented DMEM with a change to serum replacement medium 24 h post seeding.

[20] = biological target: T4, recombinant human DHODH (Homo sapiens, UniProt Q02127); experiment: Kinetic DHODH enzyme assay (3,4-dimethoxy-5-methyl-p-benzoquinone, DCIP); type: biochemical; design: made in house; conditions: Fig. 5a; average of three independent repeats ± SD
Method: In Fig. 5a enzyme assays were optimized and performed with 6 nM recombinant human DHODH prepared as described. The reaction mixture for these kinetic assays consisted of 1 mM DL-dihydroorotic acid, 100 µM 3,4-dimethoxy-5-methyl-p-benzoquinone (#D9150, Sigma-Aldrich), and 100 µM DCIP in enzyme buffer. A stock solution of 20 mM DCIP was prepared in enzyme buffer and filtered through filter paper (20–25 μm pore size) just before use. Loss in absorbance by DCIP was measured at 595 nm at RT in a stepped time course (8 × 2 min, 8 × 3 min, 6 × 5 min). […] Therefore, for each concentration of inhibitor tested, a value for DHODH’s Vmax was estimated by linear regression within this time frame.
Target sequence in this assay (Q02127 29-395 limits assumed): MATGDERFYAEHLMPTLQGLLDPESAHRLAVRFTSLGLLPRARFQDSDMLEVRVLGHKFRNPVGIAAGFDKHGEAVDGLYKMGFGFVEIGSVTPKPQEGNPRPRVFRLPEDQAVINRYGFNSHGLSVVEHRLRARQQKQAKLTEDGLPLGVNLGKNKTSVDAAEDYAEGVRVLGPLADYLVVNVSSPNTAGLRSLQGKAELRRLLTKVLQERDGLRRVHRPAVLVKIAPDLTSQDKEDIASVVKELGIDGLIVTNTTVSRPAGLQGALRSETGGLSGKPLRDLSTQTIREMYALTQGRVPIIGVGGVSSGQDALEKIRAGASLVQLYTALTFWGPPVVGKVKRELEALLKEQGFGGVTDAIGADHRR

[21] = tested on: ARN8 cells; experiment: SRB growth/viability assay, ARN8; type: cell-based, human; conditions: ARN8; Fig. 4e
Method: SRB assays measuring protein content were performed in 96-well plates as previously described.

[22] = biological target: T4, recombinant human DHODH; experiment: Endpoint DHODH enzyme assay (coenzyme Q10, DCIP); type: biochemical; design: purchased Prospecbio ENZ-642; conditions: compound at 10 µM; Supplementary Table 5, 20,000 compound library
Method: In Supplementary Tables 5 and 6, endpoint assays were performed with 10 nM recombinant human DHODH (#ENZ-642, Prospecbio). The reaction mixture consisted of 624.6 µM DL-dihydroorotic acid, 66.4 µM coenzyme Q10, 66.4 µM 2,6-dichlorophenolindophenol sodium salt (DCIP) (all reagents purchased from Sigma-Aldrich) in enzyme buffer (50 mM Tris-HCl, pH 8.0, 0.1% Triton X-100, 150 mM KCl). Loss in absorbance by DCIP was measured at 595 nm after incubation at RT for 60 min.
Target sequence in this assay (Q02127 31-395 limits assumed): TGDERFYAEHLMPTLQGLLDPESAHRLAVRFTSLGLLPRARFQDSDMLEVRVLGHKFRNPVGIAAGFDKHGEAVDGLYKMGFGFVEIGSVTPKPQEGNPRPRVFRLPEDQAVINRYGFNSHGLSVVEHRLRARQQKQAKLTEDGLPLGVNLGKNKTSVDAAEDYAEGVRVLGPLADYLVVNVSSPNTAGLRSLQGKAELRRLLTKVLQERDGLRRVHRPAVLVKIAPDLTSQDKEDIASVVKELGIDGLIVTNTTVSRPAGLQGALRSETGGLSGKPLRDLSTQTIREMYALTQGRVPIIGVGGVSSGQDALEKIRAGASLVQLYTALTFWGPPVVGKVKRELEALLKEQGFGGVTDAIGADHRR

Sequence of CDK4/CycD3 (P11802 whole entry): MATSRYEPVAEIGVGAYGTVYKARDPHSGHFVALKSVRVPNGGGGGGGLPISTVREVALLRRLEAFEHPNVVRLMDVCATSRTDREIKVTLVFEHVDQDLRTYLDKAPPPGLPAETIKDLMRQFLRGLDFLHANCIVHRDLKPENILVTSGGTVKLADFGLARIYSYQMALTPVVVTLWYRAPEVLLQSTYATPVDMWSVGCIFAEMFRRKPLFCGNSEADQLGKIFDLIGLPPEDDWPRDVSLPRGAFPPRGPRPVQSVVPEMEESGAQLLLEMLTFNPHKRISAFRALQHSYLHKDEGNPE
Sequence of CDK4/CycD3 (P30281 whole entry partner): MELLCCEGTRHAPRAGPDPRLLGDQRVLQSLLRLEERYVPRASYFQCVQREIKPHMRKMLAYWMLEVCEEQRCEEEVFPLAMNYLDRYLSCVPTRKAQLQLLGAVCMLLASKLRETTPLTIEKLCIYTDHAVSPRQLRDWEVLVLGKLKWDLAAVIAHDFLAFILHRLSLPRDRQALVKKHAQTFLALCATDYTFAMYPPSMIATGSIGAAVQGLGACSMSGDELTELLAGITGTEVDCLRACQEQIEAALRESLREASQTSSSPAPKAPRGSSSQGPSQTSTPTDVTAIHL
Sequence of CDK4/CycD1 (P11802 whole entry): as the sequence (P11802 whole entry) above
Sequence of CDK4/CycD1 (P24385 whole entry partner): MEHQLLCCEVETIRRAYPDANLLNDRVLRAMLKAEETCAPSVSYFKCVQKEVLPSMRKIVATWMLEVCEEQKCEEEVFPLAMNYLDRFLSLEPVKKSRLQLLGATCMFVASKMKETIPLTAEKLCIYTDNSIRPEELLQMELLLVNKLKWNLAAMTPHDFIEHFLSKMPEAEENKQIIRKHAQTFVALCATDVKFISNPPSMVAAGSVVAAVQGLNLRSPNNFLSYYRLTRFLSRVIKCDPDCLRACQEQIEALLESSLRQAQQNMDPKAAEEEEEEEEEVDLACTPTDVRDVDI
Sequence of CDK7/CycH/MAT1 (P50613 whole entry): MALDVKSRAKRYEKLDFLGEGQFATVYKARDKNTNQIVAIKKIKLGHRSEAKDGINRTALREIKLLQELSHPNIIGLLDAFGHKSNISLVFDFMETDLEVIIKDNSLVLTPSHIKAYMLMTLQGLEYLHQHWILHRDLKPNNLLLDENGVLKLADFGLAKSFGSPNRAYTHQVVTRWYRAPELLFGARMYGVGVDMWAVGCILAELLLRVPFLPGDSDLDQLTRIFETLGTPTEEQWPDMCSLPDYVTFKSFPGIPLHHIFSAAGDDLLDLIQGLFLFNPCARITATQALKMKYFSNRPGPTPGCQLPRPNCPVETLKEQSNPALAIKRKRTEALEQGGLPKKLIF
Sequence of CDK7/CycH/MAT1 (P51946 whole entry partner): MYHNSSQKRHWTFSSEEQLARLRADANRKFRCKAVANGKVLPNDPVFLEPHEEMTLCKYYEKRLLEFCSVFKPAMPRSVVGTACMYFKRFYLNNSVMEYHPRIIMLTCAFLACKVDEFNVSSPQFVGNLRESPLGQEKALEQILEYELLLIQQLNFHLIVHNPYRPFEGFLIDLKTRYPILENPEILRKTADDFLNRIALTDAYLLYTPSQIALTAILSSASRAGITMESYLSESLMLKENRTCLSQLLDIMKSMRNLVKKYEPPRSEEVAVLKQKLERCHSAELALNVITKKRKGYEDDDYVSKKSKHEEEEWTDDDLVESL
Sequence of CDK7/CycH/MAT1 (P51948 whole entry partner): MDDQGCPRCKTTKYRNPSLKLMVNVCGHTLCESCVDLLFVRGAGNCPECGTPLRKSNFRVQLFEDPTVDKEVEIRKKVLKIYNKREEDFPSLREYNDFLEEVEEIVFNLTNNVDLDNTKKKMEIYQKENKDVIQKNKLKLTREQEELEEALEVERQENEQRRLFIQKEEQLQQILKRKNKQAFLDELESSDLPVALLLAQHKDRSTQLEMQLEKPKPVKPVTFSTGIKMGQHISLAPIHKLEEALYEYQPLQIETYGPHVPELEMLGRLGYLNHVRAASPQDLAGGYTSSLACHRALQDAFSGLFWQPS
Sequence of CDK3/CycE1 (Q00526 whole entry): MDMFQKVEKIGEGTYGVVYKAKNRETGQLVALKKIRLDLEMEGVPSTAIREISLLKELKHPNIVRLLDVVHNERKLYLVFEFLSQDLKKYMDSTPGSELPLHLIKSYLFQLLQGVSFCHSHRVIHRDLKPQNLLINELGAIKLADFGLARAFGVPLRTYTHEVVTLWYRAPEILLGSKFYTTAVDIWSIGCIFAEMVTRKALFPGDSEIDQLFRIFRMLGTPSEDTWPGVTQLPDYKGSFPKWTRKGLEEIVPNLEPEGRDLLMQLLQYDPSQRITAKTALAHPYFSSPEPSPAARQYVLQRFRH
Sequence of CDK3/CycE1 (P24864 whole entry partner): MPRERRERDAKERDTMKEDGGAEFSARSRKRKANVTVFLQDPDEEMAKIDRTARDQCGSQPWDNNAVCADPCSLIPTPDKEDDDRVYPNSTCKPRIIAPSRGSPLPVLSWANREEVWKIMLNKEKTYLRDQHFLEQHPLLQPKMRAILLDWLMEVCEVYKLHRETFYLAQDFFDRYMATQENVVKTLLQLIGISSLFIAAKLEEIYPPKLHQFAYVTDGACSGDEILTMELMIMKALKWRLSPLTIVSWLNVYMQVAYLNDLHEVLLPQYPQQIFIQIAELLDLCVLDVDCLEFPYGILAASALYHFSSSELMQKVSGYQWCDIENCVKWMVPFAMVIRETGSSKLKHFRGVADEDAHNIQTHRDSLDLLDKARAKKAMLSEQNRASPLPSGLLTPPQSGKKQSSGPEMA
Sequence of CDK9/CycT1 (P50750 whole entry): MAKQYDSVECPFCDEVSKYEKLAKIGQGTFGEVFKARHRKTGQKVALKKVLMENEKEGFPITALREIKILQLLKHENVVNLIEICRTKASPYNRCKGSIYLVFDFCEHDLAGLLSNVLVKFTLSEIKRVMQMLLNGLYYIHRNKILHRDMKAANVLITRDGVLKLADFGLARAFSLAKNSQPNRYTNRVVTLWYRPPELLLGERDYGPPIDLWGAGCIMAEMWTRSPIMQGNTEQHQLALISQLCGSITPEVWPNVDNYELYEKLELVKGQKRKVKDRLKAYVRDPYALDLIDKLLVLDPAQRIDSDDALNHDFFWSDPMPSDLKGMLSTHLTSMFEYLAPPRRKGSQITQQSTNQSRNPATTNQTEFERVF
Sequence of CDK9/CycT1 (O60563 whole entry partner): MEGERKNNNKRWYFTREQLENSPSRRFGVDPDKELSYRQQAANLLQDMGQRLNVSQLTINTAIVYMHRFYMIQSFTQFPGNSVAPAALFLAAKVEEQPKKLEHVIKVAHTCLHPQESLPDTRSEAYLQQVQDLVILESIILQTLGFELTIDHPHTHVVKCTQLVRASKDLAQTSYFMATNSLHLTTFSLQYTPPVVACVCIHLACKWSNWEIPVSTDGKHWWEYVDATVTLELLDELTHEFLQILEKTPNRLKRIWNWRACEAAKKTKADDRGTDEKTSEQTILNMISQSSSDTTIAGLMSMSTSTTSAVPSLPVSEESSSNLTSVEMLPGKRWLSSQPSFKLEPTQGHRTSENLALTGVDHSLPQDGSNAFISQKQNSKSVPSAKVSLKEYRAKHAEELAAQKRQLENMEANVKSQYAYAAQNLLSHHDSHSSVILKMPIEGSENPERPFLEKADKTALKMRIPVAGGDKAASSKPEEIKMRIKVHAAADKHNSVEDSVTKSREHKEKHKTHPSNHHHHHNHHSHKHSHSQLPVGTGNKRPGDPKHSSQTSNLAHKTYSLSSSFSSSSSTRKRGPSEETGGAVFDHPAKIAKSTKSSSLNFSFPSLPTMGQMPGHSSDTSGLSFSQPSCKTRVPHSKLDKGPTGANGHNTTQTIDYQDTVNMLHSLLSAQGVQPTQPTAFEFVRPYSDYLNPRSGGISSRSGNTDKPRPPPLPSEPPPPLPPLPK
Sequence of CDK1/CycE1 (P06493 whole entry): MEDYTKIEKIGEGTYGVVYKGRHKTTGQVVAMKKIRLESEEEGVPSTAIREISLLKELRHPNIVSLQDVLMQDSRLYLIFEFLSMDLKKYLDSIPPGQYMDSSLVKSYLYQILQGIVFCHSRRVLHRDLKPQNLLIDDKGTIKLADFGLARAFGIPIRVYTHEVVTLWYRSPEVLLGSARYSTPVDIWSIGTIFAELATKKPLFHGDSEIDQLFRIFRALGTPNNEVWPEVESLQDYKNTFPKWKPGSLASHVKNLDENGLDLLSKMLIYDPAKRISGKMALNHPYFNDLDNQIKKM
Sequence of CDK1/CycE1 (P24864 whole entry partner): as the sequence (P24864 whole entry partner) above

SMILES: O=C(N[C@@H]1CCCc2c1cnn2-c1ccccc1F)c1ccccn1 [(R)-HZ00]
xenograft tumor growth, combination with nutlin-3 ([1]; (R)-HZ00 150 mg kg−1 i.p. q.d. + nutlin-3 100 mg kg−1 p.o. q.d.): significant ARN8 xenograft tumor growth inhibition
toxicity in xenograft study ([1]; mice, (R)-HZ00 150 mg kg−1 i.p. q.d., nutlin-3 100 mg kg−1 p.o. q.d.): not toxic
remaining activity at 10 µM [2]: 100%
remaining activity at 10 µM [3]: 107%
remaining activity at 10 µM [4]: 97.1%
remaining activity at 10 µM [5]: 92.4%
remaining activity at 10 µM [6]: 105%
remaining activity at 10 µM [7]: 101%
remaining activity at 10 µM [8]: 95.4%
remaining activity at 10 µM [9]: 101%
remaining activity at 10 µM [10]: 104%
remaining activity at 10 µM [11]: 90.9%
remaining activity at 10 µM [12]: 103%
remaining activity at 10 µM [13]: 113%
remaining activity at 10 µM [14]: 96.8%
remaining activity at 10 µM [15]: 98.3%
remaining activity at 10 µM [16]: 95.9%
remaining activity at 10 µM [17]: 90.8%
p53 reporter activity, (R)- versus (S)-enantiomer [18]: significantly higher p53 reporter activity
tumor cell growth at physiological uridine levels [19]: markedly reduce tumor cell growth

IC50 [20]: 6.7 ± 0.67 µM
SMILES: O=C(N[C@H]1CCCc2c1cnn2-c1ccccc1F)c1onc2c1CCCC2 [(S)-HZ05]

IC50 [20]: 0.289 ± 0.046 µM
SMILES: O=C(NC1CCCc2c1cnn2-c1ccc(F)cc1F)c1onc2c1CCCC2 (stereo not drawn) [HZ02]

IC50 [20]: > 10 µM
SMILES: Cc1ccc(-n2ncc3c2CC(C)(C)CC3NC(=O)c2ccccn2)cc1 (stereo not drawn) [HZ25]

SMILES: Cc1c(-c2ccc(-c3ccccc3F)cc2)nc2ccc(F)cc2c1C(=O)O [brequinar, reference compound]
effects on ARN8 growth and p53-dependent transcription ± uridine compared with HZ00 [21]: phenocopied the effects of HZ00

remaining activity at 10 µM [22]: 86.3%
SMILES: Cc1ccc(-c2nc(CN3CCCCC3c3nccs3)c(C)o2)o1 (stereo not drawn) [compound 47561416, 1-{[5-methyl-2-(5-methyl-2-furyl)-1,3-oxazol-4-yl]methyl}-2-(1,3-thiazol-2-yl)piperidine]

remaining DHODH activity (%) Average [22]: 10.68%
SMILES: COc1ccc(-c2nc(CN3CCCC3c3ccccc3OC)c(C)o2)cc1C (stereo not drawn) [compound 47870602, 2-(4-methoxy-3-methylphenyl)-4-{[2-(2-methoxyphenyl)-1-pyrrolidinyl]methyl}-5-methyl-1,3-oxazole]

remaining activity at 10 µM [22]: -5.48%
SMILES: CC(C)c1nc(C(=O)N2CCC3(CCCN(CCc4ccccc4)C3)C2)cs1 (stereo not drawn) [compound 51157786, 2-[(2-isopropyl-1,3-thiazol-4-yl)carbonyl]-7-(2-phenylethyl)-2,7-diazaspiro[4.5]decane]
